Results taken from ChEMBL document CHEMBL4834482, “Concise solid-phase synthesis enables derivatisation of YEATS domain cyclopeptide inhibitors for improved cellular uptake” (Bioorg Med Chem, 2021).

Tests used:
[1] = target: T1, Protein AF-9 (Homo sapiens, UniProt P42568); test: Inhibition of AF9 YEATS domain (1 to 138 residues) (unknown origin) assessed as inhibition of probe-1 induced AF9 YEATS domain labelling incubated for 10 mins followed by UV-irradiation for 20 mins by Photo-cross linking based In-gel fluorescence scanning analysis
T1 sequence (P42568 whole entry): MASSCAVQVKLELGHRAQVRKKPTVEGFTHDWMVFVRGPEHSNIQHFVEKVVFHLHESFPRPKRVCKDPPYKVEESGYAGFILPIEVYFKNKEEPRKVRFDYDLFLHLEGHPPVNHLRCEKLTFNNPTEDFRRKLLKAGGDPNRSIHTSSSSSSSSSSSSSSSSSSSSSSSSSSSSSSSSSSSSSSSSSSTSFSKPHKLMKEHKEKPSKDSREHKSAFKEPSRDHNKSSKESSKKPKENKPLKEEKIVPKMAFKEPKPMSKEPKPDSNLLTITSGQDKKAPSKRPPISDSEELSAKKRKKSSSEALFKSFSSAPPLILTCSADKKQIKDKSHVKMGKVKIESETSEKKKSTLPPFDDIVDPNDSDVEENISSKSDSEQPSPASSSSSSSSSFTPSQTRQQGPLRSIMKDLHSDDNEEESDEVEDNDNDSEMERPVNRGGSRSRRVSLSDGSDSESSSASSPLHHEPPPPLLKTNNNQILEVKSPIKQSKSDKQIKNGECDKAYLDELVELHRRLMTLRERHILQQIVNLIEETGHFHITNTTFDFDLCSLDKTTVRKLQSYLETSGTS

[2] = target: T1, Protein AF-9; test: Binding affinity to AF9 YEATS domain (1 to 138 residues) (unknown origin) by isothermal titration calorimetry

IC50 [1] [nM]	Kd [2] [nM]	Compound
410	370	C[C@@H]1NC(=O)[C@H]([C@H](C)O)NC(=O)[C@@H](NC(=O)OCc2ccccc2)CCCCNC(=N)NCCC[C@H](C(=O)N[C@@H](CCCCNC(=O)c2cnco2)C(N)=O)NC1=O
1740	800	CC(=O)N[C@@H](Cc1ccc(O)cc1)C(=O)NCC(=O)N[C@@H](CCCNC(=N)N)C(=O)N[C@@H](CCCCN)C(=O)N[C@@H](CCCCN)C(=O)N[C@@H](CCCNC(=N)N)C(=O)N[C@@H](CCCNC(=N)N)C(=O)N[C@@H](CCC(N)=O)C(=O)N[C@@H](CCCNC(=N)N)C(=O)N[C@@H](CCCNC(=N)N)C(=O)N[C@@H](CCCNC(=N)N)C(=O)NCCCC[C@@H]1NC(=O)[C@H]([C@@H](C)O)NC(=O)[C@@H](NC(=O)OCc2ccccc2)CCCCNC(=N)NCCC[C@@H](C(=O)N[C@@H](CCCCNC(=O)c2cnco2)C(N)=O)NC1=O
